Measured values taken from US4731470A, “[(5,6-dichloro-3-oxo-2,9a-alkano-2,3,9,9a-tetrahydro-1H-fluoren-7-yl)oxy] alkanoic acids and alkanimidamides” (Merck & Co., Inc., priority 1986, dated 1988).

Tests used:
[1] = system: cat cerebrocortical tissue slices; assay: In vitro cat cerebrocortical tissue slice assay (HCO3^- -stimulated tissue swelling); format: cell-based; settings: Felis catus, read-out: percentage inhibition of tissue swelling (% Inhib.)
Experimental: Using the in vitro cat cerebrocortical tissue slice assay, described in Example 1, compounds of the present invention can be tested for activity. This test provides the principal in vitro evaluation and consists of a determination of concentration vs. response curve. The addition of HCO3^- to isotonic, K^+ -rich saline-glucose incubation media is known to specifically stimulate the transport of Cl^- coupled with Na^+ and an osmotic equivalent of water in incubating slices of mammalian cerebral cortex. […] After addition of drug to the incubation media, detailed drug concentration-response curves are then obtained. The data are expressed as percent HCO3^- -stimulated swelling vs. drug concentration, from which the concentration of drug providing 50% inhibition of HCO3^- -stimulated swelling (I50 in molarity) is interpolated.
Adult cats of 2-3 kg body weight are employed in tissue slice studies. Prior to sacrifice, the animals are anesthetized with ketamine hydrochloride (Ketaset), 10 mg/kg intramuscularly. Eight (three control, five experimental) pial surface cerebrocortical tissue slices (0.5-mm thick; approximately 150 mg initial fresh weight) are cut successively with a calibrated Stadie-Riggs fresh tissue microtome without moistening and weighed successively on a torsion balance. During the slice preparation all operations except weighing are confined to a humid chamber. Each slice is rapidly placed in an individual Warburg flask containing 2 ml of incubation medium at room temperature. The basic composition of the incubation media, in millimoles per liter, is as follows: glucose, 10; CaCl2, 1.3; MgSO4, 1.2; KHSO4, 1.2; Hepes (N-2-hydroxyethylpiperazine-N'-2-ethanesulfonic acid, titrated with NaOH to pH 7.4), 20. Except when adding HCO3^-, the osmolarity of the media is maintained isosmotic (approximately 285 mOsm/L) by reciprocal changes of Na^+ or K^+ to achieve a concentration of K^+ of 27 mM. The basic medium was saturated with oxygen by bubbling pure oxygen through the solution for 30 minutes before use. […]
Following the 60-minute incubation period, tissue slices are separated from incubation medium by filtration, reweighed, and homogenized in 1N HClO4 (10% w/v) for electrolyte analysis. […] Control slice swelling is expressed as microliters per gram initial preswelling fresh weight. The effectiveness of an inhibitor at a given concentration is measured by the amount of HCO3^- -stimulated swelling that occurred in its presence, computed as a percent of the maximum possible. Tissue and media Na^+ and K^+ levels are determined by emission flame photometry with Li^+ internal standard; Cl^- levels are determined by amperometric titration. Tissue viability during incubation is monitored by manometry.

[2] = system: astroglial edema; settings: cited from earlier work
[3] = system: animals receiving experimental in vivo head injury; settings: cited from earlier work
[4] = system: clinical cases of head injury; settings: cited from earlier work

`O=C(O)COc1cc2c(c(Cl)c1Cl)C1=CC(=O)C3CCCC1(C2)C3` (racemic) [Example 2, [(5,6-Dichloro-3-oxo-2,9a-propano-2,3,9,9a-tetrahydro-1H-fluoren-7-yl)oxy]acetic acid] gave an inhibition at 1 µM ([1]; conc. 10^-6 M) of 81%, an inhibition at 0.1 µM ([1]; conc. 10^-7 M) of 54% and an inhibition at 0.01 µM ([1]; conc. 10^-8 M) of 29%. The inhibition at 0.001 µM ([1]; conc. 10^-9 M) was 10%.
In the case of `C=C(CC)C(=O)c1ccc(OCC(=O)O)c(Cl)c1Cl` [ethacrynic acid], the “activity in in vitro assays” value [2] is listed as “exhibited activity”, the “activity in in vivo assays” value [3] is listed as “exhibited activity” and the “reducing mortality in clinical cases of head injury” value [4] is listed as “effective in reducing mortality”.
